Measured values as given in patent US20260306460A1, “COMPOSITION FOR REMOVING AND INHIBITING SENESCENT CELLS, AND USES THEREOF” (LIFECEUTIX CO., LTD., priority 2023, published 2026).
pKd: −log10 of the molar value.

Experiments:
[1] = tested on: carbon tetrachloride-induced liver fibrosis mice; test: Carbon tetrachloride-induced liver fibrosis mice, Example 31, Table 57; format: in vivo, mouse; conditions: CCl4-induced liver fibrosis mice, untreated = 100%
Method in brief: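 Mice with induced hepatic fibrosis received either the test compound or, as controls, an equal volume of vehicle solution alone. Once dosing ended, liver tissue was harvested and total RNA was isolated. cDNA was synthesized from this RNA, and quantitative RT-PCR was run on it to measure hepatic mRNA levels of the fibrosis- and senescence-related genes.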

[2] = tested on: bleomycin-induced pulmonary fibrosis mice; test: Bleomycin-induced pulmonary fibrosis mice, Example 31, Table 56; format: in vivo, mouse; conditions: untreated = 100%
Method in brief: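 After treatment with test compound or vehicle alone, lungs of bleomycin-induced pulmonary fibrosis mice were harvested. Total RNA extracted and gene expression quantified by qRT-PCR.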

[3] = tested on: HMGN1 secreted from senescent A549 cells; test: HMGN1 secretion (ELISA) from senescent A549 cancer cells, Example 12; format: cell-based, human; conditions: senescent untreated = 100%; 30 μM; 90 μM for LX-305, 905, 1302, 1601, 1603, 2003, 2702, 2901, 3106; 270 μM for LX-1103, 2005, 2007;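 also: A549 cells made senescent by doxorubicin exposure, with DMSO-treated cells serving as the non-senescent control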
Experimental: (§1) Cells were treated with doxorubicin or control (DMSO) and cultured.

senescent human cells = test: Viability of doxorubicin-induced senescent human cells (CellTiter-Glo), Example 11; format: cell-based; conditions: 0 μM = 100
Experimental: Cells in which senescence was induced by treatment with doxorubicin were treated with the test compound at designated concentrations and measured using the CellTiter-Glo Luminescent Cell Viability Assay (Promega).
After 3 days, cell viability was measured using CellTiter-Glo Luminescent Cell Viability Assay (Promega) or light microscopy.

senescent A549 cells [4] = test: Viability of senescent A549 cancer cells (CellTiter-Glo), Example 12; format: cell-based, human; conditions: 0 μM = 100
Experimental: as §1
Cancer cells in which aging was induced by treatment with doxorubicin were treated with the test compound at designated concentrations and measured using the CellTiter-Glo Luminescent Cell Viability Assay (Promega).

[5] = tested on: HMGN1 secreted from senescent human cells; test: HMGN1 secretion (ELISA) from doxorubicin-induced senescent human cells, Example 11; format: cell-based; conditions: senescent untreated = 100%; 30 μM; 90 μM for LX-305, 1302, 1603, 2005, 2702, 2901, 3106; 270 μM for LX-1103, 2007
naturally aged mice = test: Anti-aging evaluation in naturally aged mice, Example 31, Table 55; format: in vivo, mouse; conditions: for Femur Ctsk mRNA / Kidney Agtr1a mRNA / Liver IL6 mRNA / Liver MMP3 mRNA / Liver p16 mRNA / Open Field Test Time in Center: untreated = 100%; for Heart Sur2a mRNA / Joint Col2a1 mRNA / Skin Col1a1 mRNA / Skin SDF1 mRNA: untreated = 1.0; for Muscle Mass: untreated 0.64 g; for Fat Mass: untreated 0.82 g; for Cataract incidence: untreated 83%;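 as to all read-outs here: Vehicle-dosed control mice received solution alone at matching volume, values compare test-compound-treated aged mice against that control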
senescent foreskin cells = test: Survival of senescent human cells treated with supernatant (secreted fluid) from death-induced cells, Example 13; format: cell-based; conditions: Table 8; supernatant from dying senescent cells treated at 30, 90 or 270 μM (as Example 11); senescent treated cells
[6] = tested on: HMGN1 secreted from senescent A549 cells; test: HMGN1 secretion (ELISA) from senescent A549 cells, Example 18, Table 14; format: cell-based, human; conditions: doxorubicin-senescent A549, without test compound (DMSO) = 100%; 30 μM (LX-5211, LX-5433, LX-6530, LX-6800, LX-9105, LX-9118, LX-9131, LX-9136, LX-9302, LX-9321, LX-9565, LX-9602 at 90 μM; LX-9336 at 2.4 mM)
Experimental: On the other hand, in cancer cells treated with doxorubicin, where senescence was induced, the amount of HMGN1 measured under conditions where cells were not treated with the test compound was calculated as 100%, and the amount of HMGN1 was measured under conditions where the senescent cancer cells were treated with the test compound.

senescent cells = test: Viability of senescent cells (CellTiter-Glo), Example 17, Table 13; conditions: doxorubicin-induced senescent cells, 0 μM = 100
Experimental: Cells induced to undergo senescence by doxorubicin treatment were treated with test compound at designated concentrations and measured using the CellTiter-Glo Luminescent Cell Viability Assay (Promega).

senescent A549 cells [7] = test: Viability of senescent A549 cells (CellTiter-Glo), Example 18, Table 15; conditions: doxorubicin-induced senescent A549 cells, 0 μM = 100%
Experimental: Senescence-induced cancer cells treated with doxorubicin were treated with the test compound at designated concentrations, and cell viability was measured using the CellTiter-Glo Luminescent Cell Viability Assay (Promega).

[8] = tested on: HMGN1 secreted from senescent cells; test: HMGN1 secretion (ELISA) from doxorubicin-induced senescent cells, Example 17; format: cell-based, human; conditions: senescent untreated = 100%; 30 μM; 90 μM for LX-5211, 5433, 6530, 9105, 9118, 9321, 9602; 2.4 mM for LX-9336
[9] = tested on: naturally aged C57BL6J mice; test: Geriatric depression and anxiety in aged mice, Example 21-8; format: in vivo, mouse; conditions: aged mice
Text: The amount of senescent-associated secretory factor (SASP) in serum and tissues collected from mice of Examples 21-5 and 21-6 was reduced by treatment with LX-5701, LX-2101, or LX-2102. It was confirmed that removing senescent cells, which increase with aging in mice, and effectively reducing the amount of senescent-associated secretory factor (SASP) can improve symptoms of geriatric depression and anxiety.

[10] = tested on: obesity-induced aged C57BL6J mice; test: Anxiety, depression, lethargy (open field test) in obesity-aged mice, Example 23-4, Table 44; format: in vivo, mouse; conditions: obesity-aged mice
Experimental: 15-week-old male C57BL6J mice (The Jackson Laboratory) were induced to obesity by a high-fat diet using the same method as in Example 9-1 WO2023-085787 A1. After acclimation to the experimental environment for one week, the mice were randomly assigned to experimental and control groups. […] LX-3002 was mixed in distilled water with 4% DMSO, 30% PEG300, and 5% Tween80 and administered orally at a concentration of 10 mg/kg daily for 21 days. LX-5701 was mixed in PBS and administered orally at a concentration of 360 mg/kg daily for 21 days. LX-6807 was mixed in saline and administered intraperitoneally at a concentration of 1 mg/kg daily for 21 days. The control group received only the solution in the same volume. After the end of drug administration, the methods described in each example below were performed.
It was determined that anxiety and depression caused by obesity are not causally related to increased body weight, but rather are caused by the accumulation of senescent cells. Accordingly, an activity assessment (open field test) was performed using the same method as in Example 7-7 of WO2023-085787 A1 to analyze lethargy caused by anxiety and depression caused by obesity in mice. The table below quantitatively represents activity, a criterion for assessing lethargy due to anxiety and depression, under conditions in which aging was induced by obesity and the test compound was not administered or was administered. The activity assessment after obesity-induced aging was calculated as 100% and compared with the activity assessment after test compound treatment.

[11] = MST; described in WO2021183908A1; cited from earlier work

C[N+](C)(C)CCO.C[N+](C)(C)CCO.[SH-].[SH-].[S]=[Mo]=[S] [LX-2601]
Liver p16 mRNA [1]: 75 (±3.2) %
Col1a1 mRNA [1]: 63 (±2.6) %
Lung p16 mRNA [2]: 81 (±5.2) %
Col1a1 mRNA [2]: 67 (±3.0) %
HMGN1 [3]: 193%
Survival (senescent human cells; 1.1 μM): 95.2%
Survival (senescent human cells; 10 μM): 58.6%
Survival (senescent human cells; 30 μM): 21.8%
Survival (senescent human cells; […]): 81.8%
Survival (senescent A549 cells [4]; 1.1 μM): 98.6%
Survival (senescent A549 cells [4]; 10 μM): 59.7%
Survival (senescent A549 cells [4]; 30 μM): 50.7%
Survival (senescent A549 cells [4]; […]): 86%
HMGN1 [5]: 263%
Femur Ctsk mRNA (naturally aged mice): 60%
Heart Sur2a mRNA (naturally aged mice): 2.7 fold
Joint Col2a1 mRNA (naturally aged mice): 2.3 fold
Kidney Agtr1a mRNA (naturally aged mice): 73%
Liver IL6 mRNA (naturally aged mice): 75%
Liver MMP3 mRNA (naturally aged mice): 77%
Liver p16 mRNA (naturally aged mice): 73%
Open Field Test Time in Center (naturally aged mice): 166%
Skin Col1a1 mRNA (naturally aged mice): 2.3 Fold
Skin SDF1 mRNA (naturally aged mice): 1.9 fold
Muscle Mass (naturally aged mice): 0.71 g
Fat Mass (naturally aged mice): 0.88 g
Cataract incidence (naturally aged mice): 80%
Survival (senescent foreskin cells): 67.3

COC[C@]1(CO)C(=O)[C@H]2CC[N@]1[C@H](C)C2 [LX-5731, (1R,2R,4S,6R)-2-(hydroxymethyl)-2-(methoxymethyl)-6-methylquinuclidin-3-one]
Liver p16 mRNA [1]: 60 (±6.5) %
Col1a1 mRNA [1]: 64 (±10.4) %
HMGN1 [6]: 307%
Survival (%) (senescent cells; 1.1 μM): 98.8%
Survival (%) (senescent cells; 10 μM): 48.2%
Survival (%) (senescent cells; 30 μM): 11.7%
Survival (%) (senescent cells; […]): 89.8%
Lung p16 mRNA [2]: 69 (±3.7) %
Col1a1 mRNA [2]: 62 (±13.8) %
Survival (%) (senescent A549 cells [7]; 1.1 μM): 94.4%
Survival (%) (senescent A549 cells [7]; 10 μM): 30.6%
Survival (%) (senescent A549 cells [7]; […]): 83.1%
HMGN1 [8]: 235%
Femur Ctsk mRNA (naturally aged mice): 44%
Heart Sur2a mRNA (naturally aged mice): 2.5 fold
Joint Col2a1 mRNA (naturally aged mice): 2.7 fold
Kidney Agtr1a mRNA (naturally aged mice): 49%
Liver IL6 mRNA (naturally aged mice): 42%
Liver MMP3 mRNA (naturally aged mice): 77%
Liver p16 mRNA (naturally aged mice): 58%
Open Field Test Time in Center (naturally aged mice): 237%
Skin Col1a1 mRNA (naturally aged mice): 2.3 Fold
Skin SDF1 mRNA (naturally aged mice): 2.0 fold
Muscle Mass (naturally aged mice): 0.71 g
Fat Mass (naturally aged mice): 1.01 g
Cataract incidence (naturally aged mice): 72%

CCNCc1nc2c(O)c(Cl)cc(Cl)c2c(=O)n1C [LX-9421]
Liver p16 mRNA [1]: 59 (±5.4) %
Col1a1 mRNA [1]: 34 (±3.7) %
HMGN1 [6]: 284%
Survival (%) (senescent cells; 1.1 μM): 92.1%
Survival (%) (senescent cells; 10 μM): 67.9%
Survival (%) (senescent cells; 30 μM): 25.9%
Survival (%) (senescent cells; […]): 89.3%
Lung p16 mRNA [2]: 35 (±1.6) %
Col1a1 mRNA [2]: 40 (±2.0) %
Survival (%) (senescent A549 cells [7]; 1.1 μM): 102.9%
Survival (%) (senescent A549 cells [7]; 10 μM): 62.3%
Survival (%) (senescent A549 cells [7]; 30 μM): 20.7%
Survival (%) (senescent A549 cells [7]; […]): 83.3%
HMGN1 [8]: 201%
Femur Ctsk mRNA (naturally aged mice): 44%
Heart Sur2a mRNA (naturally aged mice): 2.1 fold
Joint Col2a1 mRNA (naturally aged mice): 2.8 fold
Kidney Agtr1a mRNA (naturally aged mice): 46%
Liver IL6 mRNA (naturally aged mice): 41%
Liver MMP3 mRNA (naturally aged mice): 32%
Liver p16 mRNA (naturally aged mice): 57%
Open Field Test Time in Center (naturally aged mice): 222%
Skin Col1a1 mRNA (naturally aged mice): 2.3 Fold
Skin SDF1 mRNA (naturally aged mice): 2.6 fold
Muscle Mass (naturally aged mice): 0.78 g
Fat Mass (naturally aged mice): 0.99 g
Cataract incidence (naturally aged mice): 54%

CN(CCOc1ccc(CC2SC(=O)NC2=O)cc1)c1ccccn1 (stereo not shown) [LX-9423, Rosiglitazone]
HMGN1 [6]: 239%
Survival (%) (senescent cells; 1.1 μM): 79.5%
Survival (%) (senescent cells; 10 μM): 25.4%
Survival (%) (senescent cells; 30 μM): 8.7%
Survival (%) (senescent cells; […]): 71.8%
amount of SASP, p16, SA-β-gal, lipofuscin [9]: reduced
symptoms of geriatric depression and anxiety [9]: improved
geriatric depression [10]: similarly improving geriatric depression
Survival (%) (senescent A549 cells [7]; 1.1 μM): 82.1%
Survival (%) (senescent A549 cells [7]; 10 μM): 39.8%
Survival (%) (senescent A549 cells [7]; 30 μM): 3.0%
Survival (%) (senescent A549 cells [7]; […]): 78.3%
HMGN1 [8]: 227%

CC(C)(C)OC(=O)CCN1C(=O)c2ccccc2C1=O [QW-011]
pKd [11]: 6.03

CC(C)OC(=O)CCCN1C(=O)c2ccccc2C1=O [QW-017]
pKd [11]: 6.40

CC(C)(C)OC(=O)C(C)(C)N1C(=O)c2ccccc2C1=O [QW-020]
pKd [11]: 5.67
